In experiment [1] the test system is BJ. Nature of the experiment: cytotoxicity toward BJ-TERT-LT-ST fibroblasts, dose response, cell-based, RAS-independent, luminescence (AID 1935).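 Further: BJ fibroblasts immortalized with TERT plus LT and ST oncogenes.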 The following applies: Homo sapiens. The format is functional.
Experiment [2] concerns BJ. Kind of experiment: cytotoxicity toward BJ-TERT fibroblasts, dose response, cell-based, RAS-independent, luminescence (AID 1933). The format is functional. Particulars: Homo sapiens.
Experiment [3] concerns the target Sphingosine 1-phosphate receptor 1 (Homo sapiens, UniProt P21453). Type of experiment: functional.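 Further: Tango beta-arrestin reporter U2OS cells stimulated with S1P near its EC80; inhibitor potency meaning antagonism of receptor activation by the natural agonist.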
A short description of experiment [4]: cytotoxicity toward DRD oncogenic fibroblasts, dose response, cell-based, non-viral oncogenic, luminescence (AID 1934). The format is functional. The following applies: Homo sapiens.
The target of experiment [5] is T1, Sphingosine 1-phosphate receptor 4 (Homo sapiens, UniProt O95977).
T1 sequence (O95977 whole entry): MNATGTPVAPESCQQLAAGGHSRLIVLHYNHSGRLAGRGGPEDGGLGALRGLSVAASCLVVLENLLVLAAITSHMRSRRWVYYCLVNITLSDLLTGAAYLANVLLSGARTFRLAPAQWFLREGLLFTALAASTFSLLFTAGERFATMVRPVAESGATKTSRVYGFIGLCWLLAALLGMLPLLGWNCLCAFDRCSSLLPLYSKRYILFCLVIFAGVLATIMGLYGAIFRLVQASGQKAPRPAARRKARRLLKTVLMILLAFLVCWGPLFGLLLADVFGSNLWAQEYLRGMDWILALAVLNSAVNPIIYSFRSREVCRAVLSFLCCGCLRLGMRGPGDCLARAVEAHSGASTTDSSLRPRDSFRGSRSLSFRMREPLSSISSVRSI
Nature of the experiment: Fluorescence dose response cell-based high throughput screening assay for antagonists of the Sphingosine 1-Phosphate Receptor 4 (S1P4). [Related pubchem assays: 1524 (Confirmation in triplicates.), 1510 (Primary screen.)]. The format is functional.

Experiment [6] addresses T2, Heat shock factor protein 1 (Mus musculus, UniProt P38532).
T2 sequence (P38532 whole entry): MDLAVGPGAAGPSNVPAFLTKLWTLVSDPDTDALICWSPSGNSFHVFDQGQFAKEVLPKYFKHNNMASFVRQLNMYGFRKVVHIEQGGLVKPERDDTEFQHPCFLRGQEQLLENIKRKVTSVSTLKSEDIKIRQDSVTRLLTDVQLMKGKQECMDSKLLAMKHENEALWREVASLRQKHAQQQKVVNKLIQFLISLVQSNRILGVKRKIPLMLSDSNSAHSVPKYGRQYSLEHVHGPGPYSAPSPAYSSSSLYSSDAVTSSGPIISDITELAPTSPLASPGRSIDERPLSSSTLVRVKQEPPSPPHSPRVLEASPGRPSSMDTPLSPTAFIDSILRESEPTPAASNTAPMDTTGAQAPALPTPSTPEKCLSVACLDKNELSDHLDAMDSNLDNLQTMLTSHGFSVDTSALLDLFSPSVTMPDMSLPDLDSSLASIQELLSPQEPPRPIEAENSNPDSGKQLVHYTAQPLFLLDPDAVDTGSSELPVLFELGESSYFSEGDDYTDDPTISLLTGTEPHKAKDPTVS
Kind of experiment: inhibition of MG132-induced HSE-luciferase signal, confirmation, cell-based, NIH3T3, luminescence, dose retest (AID 2382).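 Further: NIH3T3 fibroblasts with HSF1-driven luciferase reporter stressed by proteasome inhibitor MG132; luminescence from HSF1-driven luciferase expression after 8 hours of MG132 stress.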 The format is functional.

In experiment [7] the test system is CHO. Nature of the experiment: cytotoxicity in TLR9-MyD88 CHO cells, dose response, cytotoxicity control for TLR9-MyD88 binding inhibitor project, cell-based, luminescence (AID 588339).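 Further: CHO cells stably coexpressing TLR9 and MyD88 fusions from primary screen; compound exposure lasted 48 hours before viability readout.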 The format is functional, hamster. Particulars: Cricetulus griseus.
For experiment [8], the target named is Type-1 angiotensin II receptor (Homo sapiens, UniProt P30556). Kind of experiment: AT1 receptor antagonists, dose response, selectivity assay for APJ receptor antagonist project, cell-based, uHTS hits (AID 463214).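 Further: antagonist potency against angiotensin II stimulated AT1 response.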 Type of experiment: functional.
Chain of Type-1 angiotensin II receptor (P30556 whole entry): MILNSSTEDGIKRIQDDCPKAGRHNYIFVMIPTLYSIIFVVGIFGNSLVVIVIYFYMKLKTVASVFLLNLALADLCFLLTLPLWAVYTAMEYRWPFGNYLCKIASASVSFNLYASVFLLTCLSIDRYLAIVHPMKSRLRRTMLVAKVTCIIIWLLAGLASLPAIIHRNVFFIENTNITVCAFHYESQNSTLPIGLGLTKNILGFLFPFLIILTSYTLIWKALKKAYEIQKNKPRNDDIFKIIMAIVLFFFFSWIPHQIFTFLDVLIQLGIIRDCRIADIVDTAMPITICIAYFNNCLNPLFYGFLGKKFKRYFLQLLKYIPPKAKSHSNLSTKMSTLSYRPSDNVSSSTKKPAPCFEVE
For experiment [9], the target named is T1, Sphingosine 1-phosphate receptor 4. Nature of the experiment: Late stage fluorescence dose response cell-based screening assay for antagonists of the Sphingosine 1-Phosphate Receptor 4 (S1P4). [Related pubchem assays: 1524 (Confirmation screen (S1P4 antagonists).), 1510 (Primary screen (S1P4 antagonists).), 1853 (Summary AID (S1P4 antagonists).), 1692 (Dose response screen (S1P4 antagonists).)]. The format is functional.

For experiment [10], the target named is Beta-galactosidase (Escherichia coli, UniProt Q8VNN2). Kind of experiment: PubChem AID 485352. Type of experiment: functional.
Chain of Beta-galactosidase (Q8VNN2 whole entry): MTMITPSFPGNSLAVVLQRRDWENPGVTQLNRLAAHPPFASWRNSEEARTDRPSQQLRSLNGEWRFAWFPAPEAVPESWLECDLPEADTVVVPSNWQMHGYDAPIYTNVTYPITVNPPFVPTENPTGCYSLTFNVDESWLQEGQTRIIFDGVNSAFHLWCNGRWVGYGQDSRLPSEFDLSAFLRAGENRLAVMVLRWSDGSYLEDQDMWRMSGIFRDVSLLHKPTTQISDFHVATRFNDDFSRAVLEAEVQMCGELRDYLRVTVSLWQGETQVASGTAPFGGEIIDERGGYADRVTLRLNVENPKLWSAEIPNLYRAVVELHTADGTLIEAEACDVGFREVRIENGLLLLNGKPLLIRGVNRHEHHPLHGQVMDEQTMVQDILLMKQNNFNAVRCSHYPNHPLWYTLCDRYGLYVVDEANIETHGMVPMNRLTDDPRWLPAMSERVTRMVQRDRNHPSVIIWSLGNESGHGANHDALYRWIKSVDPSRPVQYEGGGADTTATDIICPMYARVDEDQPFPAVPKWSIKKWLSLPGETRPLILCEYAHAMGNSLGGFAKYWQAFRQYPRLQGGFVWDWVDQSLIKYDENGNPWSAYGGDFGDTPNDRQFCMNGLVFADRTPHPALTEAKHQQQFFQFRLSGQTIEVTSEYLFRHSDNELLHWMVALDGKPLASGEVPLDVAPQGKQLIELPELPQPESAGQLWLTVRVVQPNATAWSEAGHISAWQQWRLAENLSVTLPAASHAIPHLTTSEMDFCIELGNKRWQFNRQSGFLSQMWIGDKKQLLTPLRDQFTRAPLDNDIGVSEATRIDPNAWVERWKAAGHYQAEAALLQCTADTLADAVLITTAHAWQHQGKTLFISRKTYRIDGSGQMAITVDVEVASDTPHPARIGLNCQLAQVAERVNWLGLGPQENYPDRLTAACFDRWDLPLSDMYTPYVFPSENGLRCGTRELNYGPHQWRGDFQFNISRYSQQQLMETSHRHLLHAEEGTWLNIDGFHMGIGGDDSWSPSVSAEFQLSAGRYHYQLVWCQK
Experiment [11] relates to INS1. Nature of the experiment: beta cell apoptosis inhibitors, cytokine rescue, dose response, luminescence, retest (AID 449756).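 Further: cell death triggered by IL-1 beta plus TNF-alpha plus IFN-gamma mixture; protective hits raise ATP signal compared with cytokine alone wells.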 The format is functional, cell-based. The following applies: Rattus norvegicus.
The test system of experiment [12] is BJ. Nature of the experiment: cells. Type of experiment: functional, cell-based. The following applies: Homo sapiens.
The target in experiment [13] is Heat shock protein HSP 90-alpha (Homo sapiens, UniProt P07900). Type of experiment: functional, organism-based.
The target of experiment [14] is Beta Lactamase (Pseudomonas aeruginosa, UniProt Q932Y6). Kind of experiment: beta-lactamase reporter inhibitor potency, dose response, artefact control for TLR9-MyD88 binding inhibitor project, BLA reporter cells, FRET fluorescence (AID 588341).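 Further: cell based assay in CHO-K1 cells stably expressing beta-lactamase.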 Type of experiment: cell-based.
Chain of Beta Lactamase (Q932Y6 whole entry): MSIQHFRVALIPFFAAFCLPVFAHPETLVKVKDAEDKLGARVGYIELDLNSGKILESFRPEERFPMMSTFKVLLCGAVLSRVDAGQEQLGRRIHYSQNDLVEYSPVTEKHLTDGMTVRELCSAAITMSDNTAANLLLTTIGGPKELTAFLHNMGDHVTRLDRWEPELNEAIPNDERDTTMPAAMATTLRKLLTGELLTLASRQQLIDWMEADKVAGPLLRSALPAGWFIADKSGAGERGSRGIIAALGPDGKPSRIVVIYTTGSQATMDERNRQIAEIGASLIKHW
Experiment [15] has as its target T3, Hexokinase HKDC1 (Homo sapiens, UniProt Q2TB90).
T3 sequence (Q2TB90 whole entry): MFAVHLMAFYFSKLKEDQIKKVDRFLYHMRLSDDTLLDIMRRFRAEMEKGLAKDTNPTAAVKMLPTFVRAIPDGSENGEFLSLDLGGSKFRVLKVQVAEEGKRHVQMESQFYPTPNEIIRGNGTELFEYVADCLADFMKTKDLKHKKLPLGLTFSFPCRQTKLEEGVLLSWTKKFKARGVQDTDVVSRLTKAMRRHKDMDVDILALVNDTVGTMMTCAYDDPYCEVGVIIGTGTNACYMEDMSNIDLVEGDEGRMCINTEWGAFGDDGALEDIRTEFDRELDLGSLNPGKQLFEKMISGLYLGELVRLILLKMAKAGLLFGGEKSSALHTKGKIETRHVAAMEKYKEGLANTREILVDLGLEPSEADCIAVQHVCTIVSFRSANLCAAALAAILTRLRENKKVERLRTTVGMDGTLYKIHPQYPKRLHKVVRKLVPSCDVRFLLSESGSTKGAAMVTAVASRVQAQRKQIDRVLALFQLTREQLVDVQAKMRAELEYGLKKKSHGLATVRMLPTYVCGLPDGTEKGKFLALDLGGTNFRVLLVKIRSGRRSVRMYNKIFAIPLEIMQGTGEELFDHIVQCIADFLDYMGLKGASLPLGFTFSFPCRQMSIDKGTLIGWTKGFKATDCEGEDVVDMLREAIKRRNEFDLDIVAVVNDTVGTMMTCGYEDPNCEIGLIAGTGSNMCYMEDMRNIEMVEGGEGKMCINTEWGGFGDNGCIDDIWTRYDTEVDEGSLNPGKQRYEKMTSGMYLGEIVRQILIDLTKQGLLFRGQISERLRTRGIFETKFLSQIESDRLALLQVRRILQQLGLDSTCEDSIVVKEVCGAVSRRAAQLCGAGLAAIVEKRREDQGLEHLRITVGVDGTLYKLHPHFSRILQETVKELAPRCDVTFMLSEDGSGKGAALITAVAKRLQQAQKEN
Nature of the experiment: SAR analysis of small molecule inhibitors of hexokinase domain containing I (HKDC1). [Related pubchem assays (depositor defined):AID493160, AID493190]. The format is functional.

Experiment [16] concerns the target Hexokinase-1 (Homo sapiens, UniProt P19367). Kind of experiment: SAR analysis of small molecule inhibitors of hexokinase domain containing I (HKDC1) in the hexokinase 1 selectivity assay. [Related pubchem assays (depositor defined):AID493160, AID493190]. The format is functional.
For experiment [17], the target named is T4, Short transient receptor potential channel 4 (Mus musculus, UniProt Q9QUQ5).
T4 sequence (Q9QUQ5 whole entry): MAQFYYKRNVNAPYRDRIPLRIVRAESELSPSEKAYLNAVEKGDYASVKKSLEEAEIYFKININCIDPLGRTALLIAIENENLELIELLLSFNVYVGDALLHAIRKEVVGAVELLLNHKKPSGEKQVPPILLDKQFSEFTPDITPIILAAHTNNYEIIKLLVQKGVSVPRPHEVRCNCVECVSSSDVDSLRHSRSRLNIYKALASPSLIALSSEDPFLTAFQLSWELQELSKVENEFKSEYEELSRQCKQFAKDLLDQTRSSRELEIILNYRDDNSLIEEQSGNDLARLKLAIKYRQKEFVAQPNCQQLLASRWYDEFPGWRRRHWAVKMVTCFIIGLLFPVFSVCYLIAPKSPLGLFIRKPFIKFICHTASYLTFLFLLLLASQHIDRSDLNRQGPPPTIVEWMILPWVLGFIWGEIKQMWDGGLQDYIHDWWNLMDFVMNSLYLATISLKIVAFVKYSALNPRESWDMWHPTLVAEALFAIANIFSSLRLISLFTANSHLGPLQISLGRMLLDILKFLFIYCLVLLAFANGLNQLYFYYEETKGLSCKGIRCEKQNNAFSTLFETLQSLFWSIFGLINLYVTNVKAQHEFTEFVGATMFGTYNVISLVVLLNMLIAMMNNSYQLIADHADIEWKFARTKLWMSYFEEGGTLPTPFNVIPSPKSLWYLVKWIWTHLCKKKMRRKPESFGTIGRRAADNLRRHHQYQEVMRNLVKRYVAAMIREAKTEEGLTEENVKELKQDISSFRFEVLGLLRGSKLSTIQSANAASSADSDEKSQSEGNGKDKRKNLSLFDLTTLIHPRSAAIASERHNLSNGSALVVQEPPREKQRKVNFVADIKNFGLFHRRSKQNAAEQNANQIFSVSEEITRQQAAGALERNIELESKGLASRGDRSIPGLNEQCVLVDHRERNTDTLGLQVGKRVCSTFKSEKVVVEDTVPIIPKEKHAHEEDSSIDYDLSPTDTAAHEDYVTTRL
Kind of experiment: TRPC4 inhibitor concentration-response, dose response, cell-based, HEK293 TRPC4/mu-opioid, DAMGO stimulus, Fluo-4 (AID 492994). Type of experiment: functional.

Experiment [18] has as its target T4, Short transient receptor potential channel 4. Nature of the experiment: SAR Analysis for the identification of selective inhibits of the transient receptor potential cation channel C4 (TRPC4): Automated Electrophysiology_2. [Related pubchem assays (depositor defined):AID2256]. Type of experiment: functional.
For experiment [19] the target is unchanged. Kind of experiment: TRPC4 inhibition under acetylcholine activation, SAR follow-up, cell-based, acetylcholine stimulus, HEK293 TRPC4, Fluo-4 (AID 492996). The format is functional.
The target of experiment [20] is Short transient receptor potential channel 6 (Mus musculus, UniProt Q61143). Nature of the experiment: TRPC6 inhibition potency of TRPC4 inhibitor analogs, dose response, selectivity assay for selective TRPC4 inhibitor project, HEK293 cells, membrane potential dye, IC50 (AID 492987). Type of experiment: functional, cell-based.
Chain of Short transient receptor potential channel 6 (Q61143 whole entry): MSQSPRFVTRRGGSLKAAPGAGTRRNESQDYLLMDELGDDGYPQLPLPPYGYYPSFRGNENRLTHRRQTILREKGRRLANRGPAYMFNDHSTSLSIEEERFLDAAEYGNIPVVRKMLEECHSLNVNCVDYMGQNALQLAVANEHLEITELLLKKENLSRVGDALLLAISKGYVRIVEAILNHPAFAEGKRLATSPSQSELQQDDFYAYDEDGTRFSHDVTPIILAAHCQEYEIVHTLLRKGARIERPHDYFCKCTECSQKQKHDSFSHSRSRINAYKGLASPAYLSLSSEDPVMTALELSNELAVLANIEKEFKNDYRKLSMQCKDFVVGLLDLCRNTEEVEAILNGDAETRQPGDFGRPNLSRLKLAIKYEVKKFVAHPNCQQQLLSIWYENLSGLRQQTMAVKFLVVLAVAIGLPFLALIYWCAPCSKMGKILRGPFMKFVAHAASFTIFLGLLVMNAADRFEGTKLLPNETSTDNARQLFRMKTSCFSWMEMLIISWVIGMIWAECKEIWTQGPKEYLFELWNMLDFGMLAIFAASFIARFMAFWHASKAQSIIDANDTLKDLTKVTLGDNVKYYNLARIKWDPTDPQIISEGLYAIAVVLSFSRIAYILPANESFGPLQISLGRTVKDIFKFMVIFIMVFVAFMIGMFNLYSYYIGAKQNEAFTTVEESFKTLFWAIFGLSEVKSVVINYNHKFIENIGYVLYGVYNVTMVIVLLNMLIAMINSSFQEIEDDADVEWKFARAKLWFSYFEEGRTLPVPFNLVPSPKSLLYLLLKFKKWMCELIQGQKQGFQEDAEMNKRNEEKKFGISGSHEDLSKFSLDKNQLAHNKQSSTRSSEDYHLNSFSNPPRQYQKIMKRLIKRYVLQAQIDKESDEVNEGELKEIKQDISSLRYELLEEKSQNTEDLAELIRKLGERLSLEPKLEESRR

Calls of active or inactive are those of the source.

Chain of Sphingosine 1-phosphate receptor 1 (P21453 whole entry): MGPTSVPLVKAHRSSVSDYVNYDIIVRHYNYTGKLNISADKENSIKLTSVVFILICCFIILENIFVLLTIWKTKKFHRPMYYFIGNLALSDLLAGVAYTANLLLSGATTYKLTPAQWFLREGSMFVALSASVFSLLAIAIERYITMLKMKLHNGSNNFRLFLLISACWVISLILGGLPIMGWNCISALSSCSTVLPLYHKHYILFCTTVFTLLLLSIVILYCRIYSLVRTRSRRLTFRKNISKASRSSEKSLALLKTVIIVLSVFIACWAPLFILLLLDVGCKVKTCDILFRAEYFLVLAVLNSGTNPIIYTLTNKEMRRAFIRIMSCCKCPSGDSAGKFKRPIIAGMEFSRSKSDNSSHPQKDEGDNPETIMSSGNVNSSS
Chain of Hexokinase-1 (P19367 whole entry, the tested form may be a part): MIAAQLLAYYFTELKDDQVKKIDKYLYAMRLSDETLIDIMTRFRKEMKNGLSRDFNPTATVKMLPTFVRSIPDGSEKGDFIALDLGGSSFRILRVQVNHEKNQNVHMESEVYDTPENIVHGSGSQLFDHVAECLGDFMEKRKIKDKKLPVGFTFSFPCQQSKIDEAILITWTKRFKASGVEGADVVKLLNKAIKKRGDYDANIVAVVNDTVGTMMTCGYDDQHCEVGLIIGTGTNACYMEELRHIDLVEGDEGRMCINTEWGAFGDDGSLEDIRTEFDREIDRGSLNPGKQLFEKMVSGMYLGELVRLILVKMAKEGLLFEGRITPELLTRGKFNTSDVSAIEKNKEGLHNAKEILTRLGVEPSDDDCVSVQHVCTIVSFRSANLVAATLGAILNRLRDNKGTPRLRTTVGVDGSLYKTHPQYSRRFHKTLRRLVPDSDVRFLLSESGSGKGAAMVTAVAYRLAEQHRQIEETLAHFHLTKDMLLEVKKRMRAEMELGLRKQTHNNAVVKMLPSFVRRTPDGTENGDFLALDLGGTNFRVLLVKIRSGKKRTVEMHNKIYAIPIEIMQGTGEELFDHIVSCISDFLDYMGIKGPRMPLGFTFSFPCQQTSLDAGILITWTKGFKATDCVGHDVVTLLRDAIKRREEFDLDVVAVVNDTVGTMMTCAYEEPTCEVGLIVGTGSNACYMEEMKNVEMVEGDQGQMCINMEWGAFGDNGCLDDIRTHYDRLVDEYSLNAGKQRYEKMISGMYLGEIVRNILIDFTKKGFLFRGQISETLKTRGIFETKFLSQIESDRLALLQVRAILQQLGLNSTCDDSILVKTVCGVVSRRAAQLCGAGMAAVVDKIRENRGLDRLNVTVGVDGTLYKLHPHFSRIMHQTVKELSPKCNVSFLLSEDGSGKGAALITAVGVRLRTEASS

Take `O=[N+]([O-])c1cnc(Sc2ccncn2)s1`: the EC50 (commonly the concentration needed to bring the measured effect to its halfway point) in experiment [1] was 4.97 µM (inconclusive); in [2], 2.21 µM (active); in [4], 5.64 µM (active); in experiment [6] it was 4.12 µM (active); in experiment [10], > 40 µM (inactive); in experiment [12] it was 8.38 µM (active). The IC50 (in general, the midpoint of a concentration-inhibition curve) in [3] was 15 µM (not active); in experiment [5] it was 860 nM (active); in [7], 1.29 µM (active); in [8], 5.67 µM (active); in experiment [9], 1.72 µM (not active); in [14], > 49.7 µM (inactive). In addition, the AC50 (as a rule, the midpoint of the concentration-response curve, whichever way the signal moves) is 4.35 µM (active) in experiment [11] and 1.49 µM (active) in experiment [13].

On to `Cc1ccc(S(=O)(=O)Nc2cc(SCC(=O)O)c(O)c3ccccc23)cc1[N+](=O)[O-]`, for which the values for the IC50 in experiment [15] and in experiment [16] were 11.4 µM (active) and 59.8 µM (inactive), respectively.

Turning to `Cc1cc(N2CCCCCC2)nc2ccccc12`, the IC50 is 1.5 µM (active) in experiment [17], 1.96 µM (active) in experiment [18], 9.55 µM (active) in experiment [19] and 9.74 µM (active) in experiment [20].

(Values after ChEMBL document CHEMBL1201862, “PubChem BioAssay data set” (2004).)
